In PMC4979471 (Cell Death Discovery, 2015):
Read-outs that look alike come from different tables or passages of the source.

What was measured:
Assay in all cases: Kinase selectivity, P33-radiolabeled assay
Format in all cases: biochemical
Settings in all cases: 10 μM ATP
[1] = target: T1, IKKb/IKBKB (Homo sapiens, UniProt O14920)
T1 construct: purchased Reaction Biology Corp
T1 sequence (O14920 1-756): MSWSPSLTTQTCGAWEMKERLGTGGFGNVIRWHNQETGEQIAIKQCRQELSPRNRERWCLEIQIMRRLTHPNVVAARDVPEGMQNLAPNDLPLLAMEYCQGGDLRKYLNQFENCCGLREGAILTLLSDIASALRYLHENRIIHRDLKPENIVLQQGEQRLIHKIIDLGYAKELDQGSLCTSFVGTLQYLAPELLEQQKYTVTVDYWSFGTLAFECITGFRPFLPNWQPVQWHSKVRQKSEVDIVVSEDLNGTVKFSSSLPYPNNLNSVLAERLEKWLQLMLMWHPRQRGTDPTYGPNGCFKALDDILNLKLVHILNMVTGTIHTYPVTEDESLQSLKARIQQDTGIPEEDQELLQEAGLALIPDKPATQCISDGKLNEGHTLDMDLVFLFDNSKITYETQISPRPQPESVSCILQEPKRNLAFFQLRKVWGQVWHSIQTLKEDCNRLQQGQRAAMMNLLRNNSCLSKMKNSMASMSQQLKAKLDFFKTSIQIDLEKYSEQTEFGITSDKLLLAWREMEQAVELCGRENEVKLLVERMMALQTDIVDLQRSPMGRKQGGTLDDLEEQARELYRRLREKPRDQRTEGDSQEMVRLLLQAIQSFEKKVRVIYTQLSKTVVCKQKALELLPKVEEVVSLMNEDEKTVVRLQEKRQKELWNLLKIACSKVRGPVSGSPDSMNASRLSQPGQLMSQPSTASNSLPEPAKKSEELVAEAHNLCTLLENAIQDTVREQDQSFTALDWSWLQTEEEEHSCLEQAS
How it was run: (§1)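 ATP at 10 μM; test article at 10 μM, single point, two replicates. Output is activity as % of DMSO.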

[2] = target: T2, PKCb2 (Homo sapiens, UniProt P05771)
T2 construct: purchased Reaction Biology Corp
How it was run: as §1

[3] = target: T3, c-Kit (Homo sapiens, UniProt P10721)
T3 construct: purchased Reaction Biology Corp
How it was run: as §1

[4] = target: T4, EPHB3 (Homo sapiens, UniProt P54753)
T4 construct: purchased Reaction Biology Corp
T4 sequence (P54753 34-998): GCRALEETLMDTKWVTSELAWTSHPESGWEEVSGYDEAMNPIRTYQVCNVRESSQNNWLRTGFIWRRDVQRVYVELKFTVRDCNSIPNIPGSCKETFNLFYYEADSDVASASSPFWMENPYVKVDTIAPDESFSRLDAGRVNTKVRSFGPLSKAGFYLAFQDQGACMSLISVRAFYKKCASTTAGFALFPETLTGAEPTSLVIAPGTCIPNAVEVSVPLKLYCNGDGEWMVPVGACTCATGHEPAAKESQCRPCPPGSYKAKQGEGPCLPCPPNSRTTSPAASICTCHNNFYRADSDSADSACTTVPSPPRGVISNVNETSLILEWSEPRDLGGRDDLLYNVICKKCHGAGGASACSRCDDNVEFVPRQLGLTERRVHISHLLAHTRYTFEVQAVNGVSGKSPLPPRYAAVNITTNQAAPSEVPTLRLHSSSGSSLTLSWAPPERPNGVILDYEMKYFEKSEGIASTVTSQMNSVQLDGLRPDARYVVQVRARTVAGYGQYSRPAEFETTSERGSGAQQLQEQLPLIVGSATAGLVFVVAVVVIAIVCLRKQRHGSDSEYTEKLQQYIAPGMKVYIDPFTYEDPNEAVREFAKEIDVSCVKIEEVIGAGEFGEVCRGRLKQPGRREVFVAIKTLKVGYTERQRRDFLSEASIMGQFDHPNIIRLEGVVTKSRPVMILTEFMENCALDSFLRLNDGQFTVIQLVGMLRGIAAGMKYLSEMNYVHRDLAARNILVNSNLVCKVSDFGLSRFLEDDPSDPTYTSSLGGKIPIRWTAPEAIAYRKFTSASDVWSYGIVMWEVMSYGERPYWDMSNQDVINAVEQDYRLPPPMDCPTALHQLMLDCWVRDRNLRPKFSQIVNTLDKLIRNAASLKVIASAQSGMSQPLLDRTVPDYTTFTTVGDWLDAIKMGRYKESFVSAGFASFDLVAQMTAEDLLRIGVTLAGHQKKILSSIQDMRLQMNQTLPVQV
How it was run: as §1

[5] = target: T5, PAK2 (Homo sapiens, UniProt Q13177)
T5 construct: purchased Reaction Biology Corp
How it was run: as §1

[6] = target: T6, SRPK2 (Homo sapiens, UniProt P78362)
T6 construct: purchased Reaction Biology Corp
How it was run: as §1

[7] = target: T7, PHKg2 (Homo sapiens, UniProt P15735)
T7 construct: purchased Reaction Biology Corp
T7 sequence (P15735 1-406): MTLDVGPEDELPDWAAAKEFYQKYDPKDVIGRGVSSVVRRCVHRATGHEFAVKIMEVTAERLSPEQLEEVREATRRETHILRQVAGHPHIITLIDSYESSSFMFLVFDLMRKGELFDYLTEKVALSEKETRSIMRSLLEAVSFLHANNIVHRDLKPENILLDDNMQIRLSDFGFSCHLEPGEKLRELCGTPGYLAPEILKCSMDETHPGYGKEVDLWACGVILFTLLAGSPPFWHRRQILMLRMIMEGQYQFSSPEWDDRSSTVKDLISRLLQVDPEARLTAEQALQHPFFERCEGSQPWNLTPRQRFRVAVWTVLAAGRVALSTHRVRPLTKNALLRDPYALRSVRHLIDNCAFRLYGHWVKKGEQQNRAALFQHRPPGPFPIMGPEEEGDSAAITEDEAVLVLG
How it was run: as §1

[8] = target: T8, HIPK1 (Homo sapiens, UniProt Q86Z02)
T8 construct: purchased Reaction Biology Corp
How it was run: as §1

[9] = target: T9, ERK2/MAPK1 (Homo sapiens, UniProt P28482)
T9 construct: purchased Reaction Biology Corp
How it was run: as §1

[10] = read-out: % Enzyme Activity (relative to DMSO controls) AVG
[11] = read-out: % Enzyme Activity (relative to DMSO controls) Data 1
[12] = read-out: % Enzyme Activity (relative to DMSO controls) Data 2

T5 sequence (Q13177 whole entry): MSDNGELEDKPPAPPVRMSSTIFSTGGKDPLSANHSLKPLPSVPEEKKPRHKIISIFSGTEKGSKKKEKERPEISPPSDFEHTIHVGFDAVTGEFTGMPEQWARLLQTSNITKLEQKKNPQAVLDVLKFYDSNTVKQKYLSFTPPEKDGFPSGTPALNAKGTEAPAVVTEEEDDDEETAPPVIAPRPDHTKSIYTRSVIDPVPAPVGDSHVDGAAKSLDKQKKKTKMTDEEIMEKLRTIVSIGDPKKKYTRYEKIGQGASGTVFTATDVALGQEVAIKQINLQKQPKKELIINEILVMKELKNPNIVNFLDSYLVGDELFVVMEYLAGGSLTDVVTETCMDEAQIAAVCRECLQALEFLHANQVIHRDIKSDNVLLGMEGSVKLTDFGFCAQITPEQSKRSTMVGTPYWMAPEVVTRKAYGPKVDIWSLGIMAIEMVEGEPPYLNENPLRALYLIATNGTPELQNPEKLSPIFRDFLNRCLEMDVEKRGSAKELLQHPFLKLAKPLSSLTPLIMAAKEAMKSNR
T6 sequence (P78362 whole entry): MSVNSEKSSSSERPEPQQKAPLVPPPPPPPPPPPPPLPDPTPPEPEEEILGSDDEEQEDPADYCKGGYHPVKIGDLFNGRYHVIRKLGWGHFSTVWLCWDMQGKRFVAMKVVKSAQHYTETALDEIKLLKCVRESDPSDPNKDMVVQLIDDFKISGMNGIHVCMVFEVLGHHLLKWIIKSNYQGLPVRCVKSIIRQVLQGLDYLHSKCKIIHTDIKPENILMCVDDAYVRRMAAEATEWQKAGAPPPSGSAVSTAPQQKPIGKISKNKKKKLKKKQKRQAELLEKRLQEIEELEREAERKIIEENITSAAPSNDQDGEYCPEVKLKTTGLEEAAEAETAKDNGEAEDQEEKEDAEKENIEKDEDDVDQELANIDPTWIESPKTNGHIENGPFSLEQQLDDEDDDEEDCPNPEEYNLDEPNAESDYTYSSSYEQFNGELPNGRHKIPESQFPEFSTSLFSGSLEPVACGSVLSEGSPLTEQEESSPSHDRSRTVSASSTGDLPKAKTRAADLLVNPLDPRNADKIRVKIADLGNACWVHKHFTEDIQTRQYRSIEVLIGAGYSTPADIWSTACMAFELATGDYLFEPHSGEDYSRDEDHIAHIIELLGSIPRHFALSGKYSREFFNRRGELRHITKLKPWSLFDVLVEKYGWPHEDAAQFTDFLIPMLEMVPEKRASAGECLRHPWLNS
T9 sequence (P28482 whole entry): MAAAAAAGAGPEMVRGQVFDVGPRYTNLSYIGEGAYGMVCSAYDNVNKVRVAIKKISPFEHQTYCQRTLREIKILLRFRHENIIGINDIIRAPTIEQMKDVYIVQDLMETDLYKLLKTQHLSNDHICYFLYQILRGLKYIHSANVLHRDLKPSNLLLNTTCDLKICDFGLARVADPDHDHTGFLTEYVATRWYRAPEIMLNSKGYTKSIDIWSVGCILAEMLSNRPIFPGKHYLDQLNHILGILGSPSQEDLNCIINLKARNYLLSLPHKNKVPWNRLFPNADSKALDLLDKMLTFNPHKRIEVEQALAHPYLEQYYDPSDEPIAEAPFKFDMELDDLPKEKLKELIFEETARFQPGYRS
T3 sequence (P10721 26-976): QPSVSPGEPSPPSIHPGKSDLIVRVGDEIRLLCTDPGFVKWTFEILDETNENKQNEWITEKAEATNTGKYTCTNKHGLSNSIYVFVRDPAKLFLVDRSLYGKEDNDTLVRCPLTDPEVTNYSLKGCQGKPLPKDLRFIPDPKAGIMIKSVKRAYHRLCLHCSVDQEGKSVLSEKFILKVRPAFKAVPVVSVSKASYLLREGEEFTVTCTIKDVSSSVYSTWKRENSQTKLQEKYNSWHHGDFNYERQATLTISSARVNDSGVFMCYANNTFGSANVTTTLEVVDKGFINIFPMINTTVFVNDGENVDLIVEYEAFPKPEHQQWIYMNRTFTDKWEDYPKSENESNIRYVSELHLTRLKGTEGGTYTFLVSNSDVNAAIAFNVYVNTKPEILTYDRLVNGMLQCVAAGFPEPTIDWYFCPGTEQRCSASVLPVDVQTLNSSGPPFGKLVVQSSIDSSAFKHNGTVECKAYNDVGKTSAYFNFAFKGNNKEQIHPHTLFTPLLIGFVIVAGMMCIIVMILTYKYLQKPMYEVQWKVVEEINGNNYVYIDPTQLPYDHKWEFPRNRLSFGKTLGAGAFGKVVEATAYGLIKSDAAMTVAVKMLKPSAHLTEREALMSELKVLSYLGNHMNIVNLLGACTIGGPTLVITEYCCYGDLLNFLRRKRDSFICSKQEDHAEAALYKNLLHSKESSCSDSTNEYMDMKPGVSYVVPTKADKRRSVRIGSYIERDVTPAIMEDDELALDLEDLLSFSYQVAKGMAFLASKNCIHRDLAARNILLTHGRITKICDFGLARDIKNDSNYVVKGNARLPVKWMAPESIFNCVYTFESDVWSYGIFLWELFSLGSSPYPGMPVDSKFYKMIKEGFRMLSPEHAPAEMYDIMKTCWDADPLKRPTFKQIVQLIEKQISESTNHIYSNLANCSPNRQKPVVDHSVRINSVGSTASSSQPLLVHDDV
T2 sequence (P05771 1-673 isoform P05771-2): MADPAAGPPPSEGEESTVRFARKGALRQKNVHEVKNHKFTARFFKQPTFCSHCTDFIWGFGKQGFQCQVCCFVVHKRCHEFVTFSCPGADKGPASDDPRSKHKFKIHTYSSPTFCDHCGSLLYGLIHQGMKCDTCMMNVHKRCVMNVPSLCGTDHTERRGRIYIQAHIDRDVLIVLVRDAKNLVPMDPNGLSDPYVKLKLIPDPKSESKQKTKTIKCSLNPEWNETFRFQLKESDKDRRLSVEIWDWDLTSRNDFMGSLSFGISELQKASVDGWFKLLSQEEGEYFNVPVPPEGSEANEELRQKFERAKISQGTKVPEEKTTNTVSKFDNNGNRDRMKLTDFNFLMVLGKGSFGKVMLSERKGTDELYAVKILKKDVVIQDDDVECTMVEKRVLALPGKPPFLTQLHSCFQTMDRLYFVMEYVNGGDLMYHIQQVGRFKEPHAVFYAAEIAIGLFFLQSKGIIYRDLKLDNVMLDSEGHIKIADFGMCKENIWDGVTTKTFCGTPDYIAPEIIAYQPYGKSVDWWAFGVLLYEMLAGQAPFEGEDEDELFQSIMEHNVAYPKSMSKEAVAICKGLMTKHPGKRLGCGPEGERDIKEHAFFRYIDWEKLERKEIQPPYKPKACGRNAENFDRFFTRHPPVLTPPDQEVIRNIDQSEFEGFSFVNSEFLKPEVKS
T8 sequence (Q86Z02 whole entry): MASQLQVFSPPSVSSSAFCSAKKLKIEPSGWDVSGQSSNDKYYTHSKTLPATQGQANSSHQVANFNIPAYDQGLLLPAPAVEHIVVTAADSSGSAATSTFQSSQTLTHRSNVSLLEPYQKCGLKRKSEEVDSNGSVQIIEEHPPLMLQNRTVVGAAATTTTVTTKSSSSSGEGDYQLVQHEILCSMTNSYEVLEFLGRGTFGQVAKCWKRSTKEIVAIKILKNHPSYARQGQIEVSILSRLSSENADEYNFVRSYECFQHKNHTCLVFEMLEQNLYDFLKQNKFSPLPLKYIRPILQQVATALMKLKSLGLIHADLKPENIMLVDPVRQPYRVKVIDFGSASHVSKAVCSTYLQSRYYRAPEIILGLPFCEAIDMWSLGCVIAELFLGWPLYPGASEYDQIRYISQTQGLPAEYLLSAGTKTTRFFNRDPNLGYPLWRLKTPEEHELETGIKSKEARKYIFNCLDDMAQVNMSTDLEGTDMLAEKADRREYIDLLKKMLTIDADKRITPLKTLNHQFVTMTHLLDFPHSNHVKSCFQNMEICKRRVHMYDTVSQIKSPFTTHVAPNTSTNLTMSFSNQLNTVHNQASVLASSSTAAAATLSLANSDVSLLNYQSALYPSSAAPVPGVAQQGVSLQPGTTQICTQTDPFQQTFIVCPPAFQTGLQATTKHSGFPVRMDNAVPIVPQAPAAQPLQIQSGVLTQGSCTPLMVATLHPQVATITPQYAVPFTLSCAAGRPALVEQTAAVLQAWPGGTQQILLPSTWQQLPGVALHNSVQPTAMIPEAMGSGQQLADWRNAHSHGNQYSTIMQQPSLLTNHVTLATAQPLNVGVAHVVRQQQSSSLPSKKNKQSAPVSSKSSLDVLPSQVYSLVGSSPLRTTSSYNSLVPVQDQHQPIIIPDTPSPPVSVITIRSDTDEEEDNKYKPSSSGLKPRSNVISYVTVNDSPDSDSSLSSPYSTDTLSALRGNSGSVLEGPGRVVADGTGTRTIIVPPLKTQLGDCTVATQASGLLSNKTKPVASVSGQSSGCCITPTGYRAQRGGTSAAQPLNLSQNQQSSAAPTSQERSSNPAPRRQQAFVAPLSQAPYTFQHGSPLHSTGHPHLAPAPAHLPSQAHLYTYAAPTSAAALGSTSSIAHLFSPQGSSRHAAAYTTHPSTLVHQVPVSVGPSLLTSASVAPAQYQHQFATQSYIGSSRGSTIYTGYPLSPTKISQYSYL

CC(C)(C)C(=O)N1N=CC[C@H]1c1ccccc1 [GSK′963]
remaining activity at 10 µM [1, 10]: 111% | remaining activity at 10 µM [1, 11]: 110% | remaining activity at 10 µM [1, 12]: 112% | remaining activity at 10 µM [2, 10]: 105% | remaining activity at 10 µM [2, 11]: 105% | remaining activity at 10 µM [2, 12]: 106% | remaining activity at 10 µM [3, 10]: 83.6% | remaining activity at 10 µM [3, 11]: 83% | remaining activity at 10 µM [3, 12]: 84.1% | remaining activity at 10 µM [4, 10]: 105% | remaining activity at 10 µM [4, 11]: 103% | remaining activity at 10 µM [4, 12]: 107% | remaining activity at 10 µM [5, 10]: 95.8% | remaining activity at 10 µM [5, 11]: 94.9% | remaining activity at 10 µM [5, 12]: 96.8% | remaining activity at 10 µM [6, 10]: 102% | remaining activity at 10 µM [6, 11]: 102% | remaining activity at 10 µM [6, 12]: 102% | remaining activity at 10 µM [7, 10]: 110% | remaining activity at 10 µM [7, 11]: 111% | remaining activity at 10 µM [7, 12]: 110% | remaining activity at 10 µM [8, 10]: 94.3% | remaining activity at 10 µM [8, 11]: 95.2% | remaining activity at 10 µM [8, 12]: 93.3% | remaining activity at 10 µM [9, 10]: 97.5% | remaining activity at 10 µM [9, 11]: 96.5% | remaining activity at 10 µM [9, 12]: 98.5%
